Patent US20040023228A1, “System and method for analysing active ingredients designed to influence intra-cellular processes” (priority 2000, published 2004)

Test system: tubulin
Experiment: FCS measurement of incorporation of rhodamine-labeled tubulin dimers into preformed microtubules (exchange kinetics in the assembly equilibrium)
Details: 10^−5M tubulin assembly mixture, 10^−9M rhodamine-labeled tubulin, 37° C.

COC(=O)Nc1nc2ccc(C(=O)c3cccs3)cc2[nH]1 [nocodazole]
concentration up to which the action on the described kinetics can be tracked: 10^−11 M

CC(=O)O[C@H]1C(=O)[C@@]2(C)[C@H]([C@H](OC(=O)c3ccccc3)[C@]3(O)C[C@H](OC(=O)[C@H](O)[C@@H](NC(=O)c4ccccc4)c4ccccc4)C(C)=C1C3(C)C)[C@]1(OC(C)=O)CO[C@@H]1C[C@@H]2O [taxol, paclitaxel]
concentration up to which the action on the described kinetics can be tracked: 10^−11 M
